From ChEMBL document CHEMBL1131535, “Conformation-function relationship of vitamin D: conformational analysis predicts potential side-chain structure” (1998) come the findings set out here.

One experiment deals with HL-60. Put plainly: Relative differentiating activity of HL-60 cells when the reference value of […] is defined as 1. The class given is functional, Homo sapiens.
For the compound `C=C1/C(=C\C=C2/CCCC3(C)C2CCC3[C@H](C)CCCC(F)(F)C(C)(C)O)C[C@@H](O)C[C@@H]1O` (stereo not given in full), the Relative differentiating activity was found to be 10. On the same count and under the same terms, the same measure for `C=C1/C(=C\C=C2/CCCC3(C)C2CCC3[C@H](C)/C=C/CCC(C)(C)O)C[C@@H](O)C[C@@H]1O` (stereo not given in full): 10; for `C=C1/C(=C\C=C2/CCCC3(C)C([C@H](C)CC#CC(O)(C(F)(F)F)C(F)(F)F)=CCC23)C[C@@H](O)C[C@@H]1O` (stereo not given in full): 80.

`C=C1/C(=C\C=C2/CCCC3(C)C2CCC3[C@H](C)/C=C/CC(O)(C(F)(F)F)C(F)(F)F)C[C@@H](O)C[C@@H]1O` (stereo not given in full): the Relative differentiating activity was 30. For `C=C1/C(=C\C=C2/CCCC3(C)C2CCC3[C@H](C)/C=C/CCCC(C)(C)O)C[C@@H](O)C[C@@H]1O` (stereo not given in full), the Relative differentiating activity turned out to be 10. In turn, `C=C1/C(=C\C=C2/CCCC3(C)C2CCC3[C@H](C)/C=C/CC(O)(CC)CC)C[C@@H](O)C[C@@H]1O` (stereo not given in full) showed a Relative differentiating activity of 60. `C=C1/C(=C\C=C2/CCCC3(C)C([C@H](C)CC#CC(C)(C)O)=CCC23)C[C@@H](O)C[C@@H]1O` (stereo not given in full) had a Relative differentiating activity of 10.

In another experiment the test system is U-937. In words: Relative differentiating activity of U 937 cells when the reference value of […] is defined as 1. The class given is functional, Homo sapiens.
The compound `C=C1/C(=C\C=C2/CCCC3(C)C2CCC3[C@@H](C)/C=C/CCC(O)(CC)CC)C[C@@H](O)C[C@@H]1O` (stereo not given in full) displayed a Relative differentiating activity of 1000. Still for that read-out and setting: the same measure for `C=C1/C(=C\C=C2/CCCC3(C)C2CCC3[C@H](C)CCCCC(O)(CC)CC)C[C@@H](O)C[C@@H]1O` (stereo not given in full): 5; for `C=C1/C(=C\C=C2/CCC[C@]3(C)[C@@H](C(C)OCCCC(O)(CC)CC)CC[C@@H]23)C[C@@H](O)C[C@@H]1O` (single isomer, unassigned) [LEXACALCITOL]: 20.

With `C=C1/C(=C\C=C2/CCCC3(C)C2CCC3[C@@H](C)OCCCC(C)(C)O)C[C@@H](O)C[C@@H]1O` (stereo not given in full), the Relative differentiating activity is recorded as 1176. The same measure, in the same setting: as for `C=C1/C(=C\C=C2/CCCC3(C)C2CCC3[C@@H](C)CCCCC(C)(C)O)C[C@@H](O)C[C@@H]1O` (stereo not given in full), the figure is 200.

Compound `C=C1/C(=C\C=C2/CCC[C@]3(C)[C@@H]([C@@H](C)OCCCC(O)(CC)CC)CC[C@@H]23)C[C@@H](O)C[C@@H]1O` [LEXACALCITOL] showed a Relative differentiating activity of 20000.

The compound `C=C1/C(=C\C=C2/CCC[C@]3(C)[C@@H]([C@H](C)/C=C/C=C/C(O)(CC)CC)CC[C@@H]23)C[C@@H](O)C[C@@H]1O` [SEOCALCITOL] yielded a Relative differentiating activity of 67.

With `C=C1/C(=C\C=C2/CCCC3(C)C2CCC3[C@@H](C)CCCCC(O)(CC)CC)C[C@@H](O)C[C@@H]1O` (stereo not given in full), the Relative differentiating activity was determined as 200.
